From patent US20240300924A1, “PYRAZOLE DERIVATIVE COMPOUND, ADHESIVE COMPOSITION COMPRISING SAME, AND ADHESIVE FILM COMPRISING SAME” (LG CHEM, LTD., priority 2021, published 2024)
Entries after “also recorded” stand apart in the source; their conditions may differ.

Assays:
Assay type in all cases: physicochemical
[1] = Maximum absorption wavelength of the adhesive composition (solution), UV-vis; conditions: adhesive composition in MEK; UV-vis apparatus (Shimazu UV-3600)
Source text: (§1) Based on 100 parts by weight a solid content except for a solvent in an adhesive composition, 95.4 parts by weight of an adhesive material (AD-701 solid content, LG Chem.), 0.29 part by weight of Compound P1, 0.1 part by weight of an isocyanate-based cross-linking agent (T39M, Soken Chemical & Engineering Co., Ltd.), 0.2 part by weight of a silane-based coupling agent (T-789J, Soken Chemical & Engineering Co., Ltd.), 0.5 part by weight of an antioxidant (Kinox-80, Hannong Chemicals Inc.), 1.5 parts by weight of an antistatic agent (FC-4400, 3M), 2 parts by weight of a hindered amine light stabilizer (Tinuvin 123, BASF SE), and 0.001 part by weight of a catalyst (dibutyltin dilaurate, Sigma-Aldrich) were added to the adhesive composition, the solvent (methyl ethyl ketone, MEK) was added thereto in an amount of 25 parts by weight based on the total parts by weight of the adhesive composition, and a release layer (PET) was coated with the adhesive composition mixed using a mixer (Shaker, SKC 6100, JEIO Tech.) to have a thickness of 22 μm to 23 μm using a knife bar coating apparatus (KP-3000, Kipae E&T Co., Ltd.), thereby preparing an adhesive film. After coating, the release layer was removed, and the adhesive film and a binder resin film (TAC: cellulose triacetate) were sequentially laminated on glass through lamination, thereby producing a sample.
(§2) The maximum absorption wavelength λmax (nm) of each of the adhesive composition and the adhesive film was measured using a UV-vis apparatus (Shimazu UV-3600). In addition, the transmittance of the sample for light with a wavelength of 390 to 450 nm was measured by the UV-vis apparatus (Shimazu UV-3600). Under conditions of light fastness 55,600 lx*48 hours; under conditions of heat resistance 80° C. and for 500 hours; or under conditions of moisture resistance 60° C., 90% RH and for 500 hours, the sample was each exposed, and then the transmittance for light with a wavelength of 390 to 450 nm was re-measured. ΔT was calculated by dividing the value obtained by […] by the transmittance value immediately after the sample was produced, and the results under the evaluation conditions are shown in Table 1. Furthermore, the transmittance of the sample for light in a region with a wavelength of 450 nm or more was measured by the UV-vis apparatus (Shimazu UV-3600). Further, the solubility of Compound p1 to methyl ethyl ketone (MEK) was measured under conditions of 1 atm and room temperature.
(§3) Experiments were performed under the same conditions as in Example 1, except that Compounds P3 to P10, Compound P15 and Comparative Compounds Z1 and Z2 were used instead of Compound P1, respectively, in Example 1, and the experimental results are shown in the following Table 1.

[2] = Maximum absorption wavelength of the adhesive film (thin film), UV-vis; conditions: adhesive film 22 μm to 23 μm; UV-vis apparatus (Shimazu UV-3600)
Source text: as §1, §2, §3

[3] = Moisture resistance of adhesive film sample (change in transmittance ΔT); conditions: ΔT of transmittance for light of 390 to 450 nm, 60° C., 90% RH for 500 hours
Source text: as §1, §2
(§4) ΔT (%)={(transmittance measured immediately after the optical film was prepared−transmittance re-measured after the optical film is exposed to each condition of light fastness, heat resistance, and moisture resistance)/transmittance measured immediately after the optical film is prepared}×100
(§5) • ◯: ΔT 1.5% or less • Δ: ΔT more than 1.5% and 3% or less • X: ΔT more than 3%
(§6) The light fastness, heat resistance and moisture resistance were evaluated as ◯, Δ, and X based on whether the ΔT was 1.5% or less, more than 1.5% and 3% or less, or more than 3%, respectively.

[4] = Wavelength compatibility (transmittance of sample in region with 450 nm or more); conditions: for Wavelength compatibility: transmittance of adhesive film sample in region with wavelength of 450 nm or more; for wavelength compatibility (in words): verbal assessment
Procedure: as §2
• ◯: transmittance of 90% or more in region with 450 nm or more • Δ: transmittance of 80% or more in region with 450 nm or more • X: transmittance of 80% or less in region with 450 nm or more
The wavelength compatibility was evaluated as ◯, Δ, and X based on whether the transmittance in a region with 450 nm or more was 90% or more, 80% or more, or 80% or less, respectively.

[5] = Light fastness of adhesive film sample (change in transmittance ΔT); conditions: ΔT of transmittance for light of 390 to 450 nm; adhesive film sample with 0.29 part by weight compound; 55,600 lx*48 hours
Source text: as §1, §2, §4, §5, §6

[6] = Heat resistance of adhesive film sample (change in transmittance ΔT); conditions: ΔT of transmittance for light of 390 to 450 nm, 80° C. for 500 hours
Source text: as §1, §2, §4, §5, §6

[7] = Solubility of compound in methyl ethyl ketone (MEK); conditions: solubility to 10 g of methyl ethyl ketone; 1 atm and room temperature
Procedure: as §2
• ◯: 0.3 wt. % or more • Δ: more than 0.1 wt. % and less than 0.3 wt. % • X: 0.1 wt. % or less

[8] = Solution-phase UV-Vis spectrum (FIG. 2), wavelength distribution; conditions: P3 compared with Comparative Compound Z2
Source text: FIG. 2 illustrates the solution-phase UV-Vis spectra of Compound P3 according to an exemplary embodiment of the present disclosure and Comparative Compound Z2 used in Comparative Example 2.
Since the compound according to an exemplary embodiment of the present disclosure may improve the light blocking efficiency or reduce the reflectance to external light by strongly absorbing light, the compound is excellent in wavelength compatibility in being included in an optical film. The wavelength compatibility can be confirmed by the wavelength distribution and the optimization appearing in the UV-Vis spectrum. For example, FIG. 2 illustrates the solution-phase UV-Vis spectra of Compound P3 according to an exemplary embodiment of the present disclosure and Comparative Compound Z2 used in Comparative Example 2. In FIG. 2, the dotted line is the solution-phase UV-Vis spectrum for Comparative Compound Z2, and the solid line is the solution-phase UV-Vis spectrum for Compound P3 according to an exemplary embodiment of the present disclosure.

Cc1nn(-c2ccccc2)c(O)c1C=C1C(=O)NC(=O)NC1=O [Comparative Compound Z1, reference compound]
λmax (nm) (Solution) [1]: 412 nm
λmax (nm) (Thin film) [2]: 425 nm
Moisture resistance [3]: Δ (ΔT more than 1.5% and 3% or less)
Wavelength compatibility [4]: Δ (transmittance of 80% or more in region with 450 nm or more)

Cc1ccccc1-n1nc(C(C)C)c(C=C2C(=O)N(C3CCCCC3)C(=O)N(C3CCCCC3)C2=O)c1O [Compound P9]
λmax (nm) (Solution) [1]: 403 nm
λmax (nm) (Thin film) [2]: 399 nm
Light fastness [5]: ∘
Heat resistance [6]: ∘
Moisture resistance [3]: ∘
MEK solubility [7]: ∘
Wavelength compatibility [4]: ∘

Cc1ccc(-n2nc(-c3ccccc3)c(C=C3C(=O)N(C4CCCCC4)C(=O)N(C4CCCCC4)C3=O)c2O)c(C)c1 [Compound P7]
λmax (nm) (Solution) [1]: 399 nm
λmax (nm) (Thin film) [2]: 399 nm
Light fastness [5]: ∘
Heat resistance [6]: ∘
Moisture resistance [3]: ∘
MEK solubility [7]: ∘
Wavelength compatibility [4]: ∘

Cc1ccccc1-n1nc(C(C)C)c(C=C2C(=O)N(c3ccccc3)C(=O)N(c3ccccc3)C2=O)c1O [Compound P15]
λmax (nm) (Solution) [1]: 402 nm
λmax (nm) (Thin film) [2]: 398 nm
Light fastness [5]: ∘
Heat resistance [6]: ∘
Moisture resistance [3]: ∘
MEK solubility [7]: Δ (more than 0.1 wt. % and less than 0.3 wt. %)
Wavelength compatibility [4]: ∘

Cc1ccc(-n2nc(C)c(C=C3C(=O)N(C4CCCCC4)C(=O)N(C4CCCCC4)C3=O)c2O)c(C)c1 [Compound P4]
λmax (nm) (Solution) [1]: 403 nm
λmax (nm) (Thin film) [2]: 399 nm
Light fastness [5]: ∘
Heat resistance [6]: ∘
Moisture resistance [3]: ∘
MEK solubility [7]: ∘
Wavelength compatibility [4]: ∘

Cc1ccccc1-n1nc(-c2ccccc2)c(C=C2C(=O)N(C3CCCCC3)C(=O)N(C3CCCCC3)C2=O)c1O [Compound P6]
λmax (nm) (Solution) [1]: 400 nm
λmax (nm) (Thin film) [2]: 400 nm
Light fastness [5]: ∘
Heat resistance [6]: Δ (ΔT more than 1.5% and 3% or less)
Moisture resistance [3]: ∘
MEK solubility [7]: Δ (more than 0.1 wt. % and less than 0.3 wt. %)
Wavelength compatibility [4]: ∘

CC1=NN(c2ccccc2)C(=O)/C1=C\c1c(C)nn(-c2ccccc2)c1O [Comparative Compound Z2, reference compound]
λmax (nm) (Solution) [1]: 405 nm
λmax (nm) (Thin film) [2]: 403 nm
Light fastness [5]: ∘
Heat resistance [6]: ∘
Moisture resistance [3]: ∘
MEK solubility [7]: ∘
wavelength compatibility (in words) [4]: remarkably deteriorates compared to Examples 1 to 10

Cc1ccc(-n2nc(C(C)C)c(C=C3C(=O)N(C4CCCCC4)C(=O)N(C4CCCCC4)C3=O)c2O)c(C)c1 [Compound P10]
λmax (nm) (Solution) [1]: 403 nm
λmax (nm) (Thin film) [2]: 398 nm
Light fastness [5]: ∘
Heat resistance [6]: ∘
Moisture resistance [3]: ∘
MEK solubility [7]: ∘
Wavelength compatibility [4]: ∘

O=C1C(=Cc2c(-c3ccccc3)nn(-c3ccccc3)c2O)C(=O)N(C2CCCCC2)C(=O)N1C1CCCCC1 [Compound P5]
λmax (nm) (Solution) [1]: 407 nm
λmax (nm) (Thin film) [2]: 406 nm
Light fastness [5]: Δ (ΔT more than 1.5% and 3% or less)
Heat resistance [6]: ∘
Moisture resistance [3]: ∘
MEK solubility [7]: Δ (more than 0.1 wt. % and less than 0.3 wt. %)
Wavelength compatibility [4]: ∘

CC(C)c1nn(-c2ccccc2)c(O)c1C=C1C(=O)N(C2CCCCC2)C(=O)N(C2CCCCC2)C1=O [Compound P8]
λmax (nm) (Solution) [1]: 406 nm
λmax (nm) (Thin film) [2]: 408 nm
Light fastness [5]: ∘
Heat resistance [6]: Δ (ΔT more than 1.5% and 3% or less)
Moisture resistance [3]: ∘
MEK solubility [7]: Δ (more than 0.1 wt. % and less than 0.3 wt. %)
Wavelength compatibility [4]: ∘

Cc1ccccc1-n1nc(C)c(C=C2C(=O)N(C3CCCCC3)C(=O)N(C3CCCCC3)C2=O)c1O [Compound P3]
λmax (nm) (Solution) [1]: 404 nm
λmax (nm) (Thin film) [2]: 400 nm
Light fastness [5]: ∘
Heat resistance [6]: ∘
Moisture resistance [3]: ∘
MEK solubility [7]: ∘
Wavelength compatibility [4]: ∘
wavelength compatibility (in words) [4]: excellent wavelength compatibility
wavelength distribution in solution-phase UV-Vis spectrum [8]: narrower wavelength distribution than Comparative Compound Z2; also recorded: wavelength distribution narrower and more optimized than Comparative Compound Z2

Cc1nn(-c2ccccc2)c(O)c1C=C1C(=O)N(C2CCCCC2)C(=O)N(C2CCCCC2)C1=O [Compound P1]
λmax (nm) (Solution) [1]: 411 nm
λmax (nm) (Thin film) [2]: 407 nm
Light fastness [5]: Δ (ΔT more than 1.5% and 3% or less)
Heat resistance [6]: Δ (ΔT more than 1.5% and 3% or less)
Moisture resistance [3]: ∘
MEK solubility [7]: Δ (more than 0.1 wt. % and less than 0.3 wt. %)
Wavelength compatibility [4]: ∘
